From ChEMBL document CHEMBL5058564, “EUbOPEN Chemogenomics Library 2 (Incucyte)” (2022)

How the values were obtained:
Assay type in all cases: toxicity, cell-based
U2OS = experiment: Incucyte cell viability with U2OS; conditions: human, 10 µM, compound concentration 10 uM
HEK-293T = experiment: Incucyte cell viability with HEK293T; conditions: human, 10 µM, compound concentration 10 uM
Fibroblast = experiment: Incucyte cell viability with human fibroblast; conditions: 10 µM, compound concentration 10 uM
[1] = 0 h, replicate number 1, timepoint 0 hours
[2] = 0 h, replicate number 2, timepoint 0 hours
[3] = 6 h, replicate number 1, timepoint 6 hours
[4] = 6 h, replicate number 2, timepoint 6 hours
[5] = 12 h, replicate number 1, timepoint 12 hours
[6] = 12 h, replicate number 2, timepoint 12 hours
[7] = 18 h, replicate number 1, timepoint 18 hours
[8] = 18 h, replicate number 2, timepoint 18 hours
[9] = 24 h, replicate number 1, timepoint 24 hours
[10] = 24 h, replicate number 2, timepoint 24 hours
Further: unitless GR value; below 1 slowed growth and below 0 cell loss.

SMILES | Growth Rate (U2OS; [1]) | Growth Rate (U2OS; [2]) | Growth Rate (U2OS; [3]) | Growth Rate (U2OS; [4]) | Growth Rate (U2OS; [5]) | Growth Rate (U2OS; [6]) | Growth Rate (U2OS; [7]) | Growth Rate (U2OS; [8]) | Growth Rate (U2OS; [9]) | Growth Rate (U2OS; [10]) | Growth Rate (HEK-293T; [2]) | Growth Rate (HEK-293T; [5]) | Growth Rate (HEK-293T; [6]) | Growth Rate (HEK-293T; [7]) | Growth Rate (HEK-293T; [8]) | Growth Rate (HEK-293T; [9]) | Growth Rate (HEK-293T; [10]) | Growth Rate (Fibroblast; [1]) | Growth Rate (Fibroblast; [2]) | Growth Rate (Fibroblast; [5]) | other results
Cc1cc(C)cc(C(=O)NOCCCCCC(=O)NO)c1 | 0.03 | -0.5 | 0.82 | 0.51 | 0.43 | 0.5 | 0.34 | 0.4 | 0.37 | 0.36 | 0.38 | 0.54 | 0.67 | 0.24 | 0.37 | 0.15 | 0.32 | -0.03 | 0.7 | 0.99 | Growth Rate (Fibroblast; [9]): 0.77
O=c1ccn([C@@H]2O[C@H](COP(=O)([O-])OP(=O)([O-])OP(=O)([O-])O)[C@@H](O)[C@H]2O)c(=O)[nH]1.[Na+].[Na+].[Na+] | 0.49 | 0.48 | 0.21 | 0.83 | 0.6 | 0.94 | 0.83 | 0.93 | 0.99 | 0.94 | 0.62 | 0.84 | 0.64 | 0.92 | 0.75 | 0.85 | 0.72 |  | 0.81 | 0.12 | Growth Rate (HEK-293T; [1]): 0.09; Growth Rate (HEK-293T; [3]): 0.64; Growth Rate (HEK-293T; [4]): 0.41; Growth Rate (Fibroblast; [3]): 0.2; Growth Rate (Fibroblast; [4]): 0.66; Growth Rate (Fibroblast; [6]): 0.75; Growth Rate (Fibroblast; [7]): 0.29; Growth Rate (Fibroblast; [8]): 0.88; Growth Rate (Fibroblast; [9]): 0.13; Growth Rate (Fibroblast; [10]): 0.78
CN1CCN(c2nc3cc(C(F)(F)F)ccc3n3cccc23)CC1.O=C(O)/C=C\C(=O)O.O=C(O)/C=C\C(=O)O |  | -1 |  |  |  |  |  |  |  |  |  |  | 0.87 |  | 0.7 | 0.8 |  | 0.87 |  | 0.72 | Growth Rate (HEK-293T; [3]): 0.89; Growth Rate (HEK-293T; [4]): 0.57; Growth Rate (Fibroblast; [3]): 0.24; Growth Rate (Fibroblast; [7]): 0.98
O=C(O)c1cccc(/C=C2/C[C@@H]3[C@@H](/C=C/[C@H](O)C4CCCCC4)[C@H](O)C[C@@H]3O2)c1 |  | 0.48 | 0.65 | 0.71 | 0.59 | 0.94 | 0.9 |  |  |  | -0.26 |  |  | 0.98 | 1 | 0.9 | 0.92 | -0.51 | -0.06 |  | Growth Rate (HEK-293T; [1]): -0.12; Growth Rate (Fibroblast; [4]): 0.96; Growth Rate (Fibroblast; [6]): 0.77; Growth Rate (Fibroblast; [10]): 0.89
CNC[C@H](O)c1ccc(O)c(O)c1 [EPINEPHRINE] | 0.36 |  | 0.63 | 0.96 | 0.43 | 0.71 | 0.85 | 0.9 | 0.86 | 0.94 |  | 0.73 |  | 0.84 |  |  |  | 0.11 | -0.14 |  | Growth Rate (HEK-293T; [1]): 0.03; Growth Rate (HEK-293T; [3]): 0.83
